Experimental data published in PubChem BioAssay AID1238 (The Scripps Research Institute Molecular Screening Center, 2008).
Active and inactive are the calls of the source. The rule behind the calls is not given here.

What follows are compounds tested on beta-lactamase reporter cell line, FRET read-out, counterscreen (assay: nonspecific beta-lactamase reporter inhibition – cell-based, FRET readout, counter-screen for GALR2 antagonist project, dose response (AID 1238)).
For `CCOC(=O)c1ccc(N2C(=O)CC(N3CCC(O)(c4ccc(Br)cc4)CC3)C2=O)cc1` (stereo not drawn), the IC50 was > 42 µM (inactive).
In the case of `O=C(Nc1ccc2nc(-c3cccnc3)[nH]c2c1)C12CC3CC(CC(C3)C1)C2`, the IC50 is reported as > 42 µM (inactive).
For `CC(=O)c1c(C)[nH]c(C(=O)OCC(=O)Nc2ccc(Cl)cc2[N+](=O)[O-])c1C`, the IC50 was > 42 µM (inactive).
With `c1ccc2c(c1)[nH]c1c(NCC3CCCO3)ncnc12` (stereo not drawn) the IC50 was > 42 µM (inactive).
For `CCOc1ccc(S(=O)(=O)NCc2ccncc2)cc1`, the IC50 was > 42 µM (inactive).
With `CC(=O)SC(C[N+](=O)[O-])c1cn(C(C)=O)c2ccccc12` (stereo not drawn) the IC50 was 17.1 µM (inactive).
For `Cn1nc(C(C)(C)C)cc1C(=O)NCc1ccc(N2CCCC2=O)cc1`, the IC50 was > 42 µM (inactive).
`CNc1nc2cc([N+](=O)[O-])c([N+](=O)[O-])cc2nc1NC` was tested, and the IC50 was > 42 µM (inactive).
For `Cc1cccc(C(=O)Nc2ccc(C(=O)/C=C/c3cccnc3)cc2)c1`, the IC50 was 17.9 µM (inactive).
With `N#C/C(=C\c1cccs1)c1nc2ccccc2[nH]1` the IC50 was > 42 µM (inactive).
In the case of `O=C(Cn1ncc(Cl)c(Cl)c1=O)N1CCN(S(=O)(=O)c2ccc3ccccc3c2)CC1`, the IC50 is reported as > 14 µM (inactive).
Compound `CCOC(=O)c1cc([N+](=O)[O-])c([N+](=O)[O-])cc1NC(C)=O` has an IC50 of 7.53 µM.
In the case of `Cc1cc(Nc2cccc(Cl)c2)nc(NCc2ccccc2)n1`, the IC50 is reported as > 14 µM (inactive).
With `Cc1ccc(S(=O)(=O)NCc2ccncc2)cc1` the IC50 was > 42 µM (inactive).
For `O=C(/C=C/c1ccc(Cl)cc1)NC(=S)Nc1ccc(NC(=O)c2ccco2)cc1`, the IC50 was > 14 µM (inactive).
With `Cc1ccc(S(=O)(=O)CC2CSc3nc4ccccc4n32)cc1` (stereo not drawn) the IC50 was > 42 µM (inactive).
`COc1ccc(CCNc2c(C)c(C)nc3ncnn23)cc1` was tested, and the IC50 was > 42 µM (inactive).
In the case of `c1ccc2c(c1)OCC(CNc1ncnc3sccc13)O2` (stereo not drawn), the IC50 is reported as > 42 µM (inactive).
For `COC(=O)c1ccc(COC(=O)c2[nH]c(C)c(C(C)=O)c2C)o1`, the IC50 was > 42 µM (inactive).
With `CC(=O)Nc1ccccc1OCC(=O)c1cc(C)n(Cc2cccs2)c1C` the IC50 was > 42 µM (inactive).
For `Cc1sc2ncnc(NCCc3ccc(S(N)(=O)=O)cc3)c2c1C`, the IC50 was > 42 µM (inactive).
`Cc1ccc2[nH]c3c(N4CCc5ccccc5C4)ncnc3c2c1` was tested, and the IC50 was > 42 µM (inactive).
With `CCCCOc1ncnc2c1[nH]c1ccc(F)cc12` the IC50 was > 42 µM (inactive).
In the case of `CCn1c2ccc(C)cc2c2nc3cc(C(=O)O)ccc3nc21`, the IC50 is reported as > 42 µM (inactive).
`CC(=O)c1c(C)[nH]c(C(=O)OCCCCN2C(=O)c3ccccc3C2=O)c1C` was tested, and the IC50 was > 42 µM (inactive).
`COc1cc(/C=C/[N+](=O)[O-])ccc1O` was tested, and the IC50 was 11.1 µM (inactive).
With `CCOC(=O)COc1ccc(S(=O)(=O)NCc2ccncc2)cc1` the IC50 was > 42 µM (inactive).
In the case of `O=[N+]([O-])c1cc(-c2ncccn2)c([N+](=O)[O-])s1`, the IC50 is reported as 9.61 µM.
For `c1cnc2c(c1)ccc1cccnc12`, the IC50 was > 42 µM (inactive).
In the case of `Cc1nc2ccc(NC(=O)c3cc(S(=O)(=O)N(C)c4ccccc4)ccc3Cl)cc2s1`, the IC50 is reported as > 42 µM (inactive).
With `Cc1cc(C(=O)CSc2nc3ccccc3[nH]2)c(C)n1CC1CCCO1` (stereo not drawn) the IC50 was > 42 µM (inactive).
`O=S(=O)(NCc1ccncc1)c1ccc(Br)s1` was tested, and the IC50 was > 42 µM (inactive).
For `Cc1cc(C)c(S(=O)(=O)NCc2ccncc2)c(C)c1`, the IC50 was > 42 µM (inactive).
With `CCc1ccccc1NC(=O)CN(C)C(=O)Cn1ncc(Cl)c(Cl)c1=O` the IC50 was 17.1 µM (inactive).
For `CN(C(=S)NC1CCCCC1)C1(c2ccccc2Cl)CCCCC1=O` (stereo not drawn), the IC50 was > 42 µM (inactive).
With `CCCOc1ncnc2c1[nH]c1ccccc12` the IC50 was > 42 µM (inactive).
For `CC1CCC/C=C/C2CC(O)CC2C(O)/C=C/C(=O)O1` (stereo not drawn), the IC50 was > 42 µM (inactive).
`O=C(Cc1cccs1)Nc1cccc(-c2nc3cc4ccccc4cc3[nH]2)c1` was tested, and the IC50 was > 42 µM (inactive).
With `CCOC(=O)N1CCN(c2ncnc3c2[nH]c2ccc(F)cc23)CC1` the IC50 was > 42 µM (inactive).
`CN(C)c1ccc(NC2=C(Cl)C(=O)c3ccccc3C2=O)cc1` was tested, and the IC50 was > 14 µM (inactive).
For `O=C(/C=C/Sc1ncn[nH]1)c1ccc(Cl)cc1`, the IC50 was 17 µM (inactive).
For `Cc1nnc(SCC(=O)Nc2cccc(S(=O)(=O)N(C)c3ccccc3)c2)s1`, the IC50 was > 42 µM (inactive).
In the case of `C1=C(CCNc2ncnc3c2[nH]c2ccccc23)CCCC1`, the IC50 is reported as > 42 µM (inactive).
